Laboratory results: article PMC4580724 (Clinical Pharmacokinetics, 2015)
Several values for one entry are separate records, joined by “and”; a condition that tells them apart may be missing. Equal values may be shown once. Read-outs that look alike come from different tables or passages of the source.

What was measured:
[1] = arm 2
[2] = type: in vivo, human; details: for AUC∞ geometric mean ratio test/reference (90 % CI) / C max geometric mean ratio test/reference (90 % CI): substrate + enzalutamide 160 mg/day vs substrate + placebo-to-match, n = 14
[3] = tested on: CYP3A4; details: human primary hepatocyte cultures; cited from earlier work
[4] = type: in vivo, human
[5] = tested on: CYP2C9; details: human hepatic microsomes; cited from earlier work
[6] = molecular target: T1, CYP2C8 (Homo sapiens, UniProt P10632); details: human hepatic microsomes; cited from earlier work
T1 sequence (P10632 1-490): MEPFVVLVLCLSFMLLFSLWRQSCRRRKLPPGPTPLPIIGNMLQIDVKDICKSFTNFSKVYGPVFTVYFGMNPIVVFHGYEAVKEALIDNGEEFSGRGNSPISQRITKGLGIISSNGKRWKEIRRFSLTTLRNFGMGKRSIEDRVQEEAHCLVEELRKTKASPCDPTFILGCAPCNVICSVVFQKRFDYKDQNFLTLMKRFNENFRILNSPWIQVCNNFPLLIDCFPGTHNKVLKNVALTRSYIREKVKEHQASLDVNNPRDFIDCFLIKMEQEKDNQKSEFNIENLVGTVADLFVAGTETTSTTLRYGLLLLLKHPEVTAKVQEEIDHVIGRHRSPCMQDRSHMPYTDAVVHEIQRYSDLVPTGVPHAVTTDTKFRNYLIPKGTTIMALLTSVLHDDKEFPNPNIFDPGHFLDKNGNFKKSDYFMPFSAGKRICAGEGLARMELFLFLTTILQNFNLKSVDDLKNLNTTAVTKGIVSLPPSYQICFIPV

[7] = tested on: CYP3A4; assay: Clinical effect of enzalutamide on CYP3A4; details: enzalutamide 160 mg once daily; oral midazolam
[8] = cited from earlier work
[9] = tested on: CYP2B6; details: human hepatic microsomes; cited from earlier work
[10] = tested on: CYP2C19; details: human hepatic microsomes; cited from earlier work
[11] = type: in vivo, human; details: for t max: median [range]; for AUCτ: one 24-h dosing interval at steady state, 14 patients, enzalutamide 160 mg once daily for 49 days
[12] = Population pharmacokinetic modeling and simulation; design: species or system human; details: with gemfibrozil vs enzalutamide alone
[13] = patients with mCRPC; cited from earlier work
[14] = cited from earlier work; remark: listed apart in the source
[15] = cited from earlier work; remark: listed apart in the source
[16] = enzalutamide 160 mg/day vs placebo-to-match
[17] = with itraconazole vs enzalutamide alone, observed data
[18] = 14 patients taking enzalutamide 160 mg once daily for 49 days, mean ± standard deviation
[19] = with itraconazole vs enzalutamide alone
[20] = 14 patients taking enzalutamide 160 mg once daily for 49 days

SMILES: Cc1ccc(C)c(OCCCC(C)(C)C(=O)O)c1 [gemfibrozil]
- adverse event above NCI-CTCAE grade 1 with possible relationship [1]: grade 2 flatulence in one subject

SMILES: CC(=O)C[C@@H](c1ccccc1)c1c(O)c2ccccc2oc1=O [S-warfarin, reference compound]
- decrease in AUC∞ by enzalutamide [2, 16]: 56%

SMILES: OCc1ncc2n1-c1ccc(Cl)cc1C(c1ccccc1F)=NC2 [1-Hydroxy-midalozam, 1-hydroxy-midazolam]
- decrease in AUC∞ by enzalutamide [2, 16]: 76%
- AUC∞ geometric mean ratio test/reference (90 % CI) [2]: 0.24 (0.20–0.28)
- C max geometric mean ratio test/reference (90 % CI) [2]: 0.29 (0.24–0.35)

SMILES: CCc1ccc(CCOc2ccc(CC3SC(=O)NC3=O)cc2)nc1 (stereo not drawn) [pioglitazone, reference compound]
- increase in AUC∞ by enzalutamide [2, 16]: 20%
- AUC∞ geometric mean ratio test/reference (90 % CI) [2]: 1.20 (0.98–1.47)
- C max geometric mean ratio test/reference (90 % CI) [2]: 0.82 (0.67–1.01)

SMILES: Cc1ncc2n1-c1ccc(Cl)cc1C(c1ccccc1F)=NC2 [midazolam, reference compound]
- decrease in AUC∞ by enzalutamide [2, 16]: 86%
- AUC∞ geometric mean ratio test/reference (90 % CI) [2]: 0.14 (0.12–0.17)
- C max geometric mean ratio test/reference (90 % CI) [2]: 0.23 (0.20–0.27)

SMILES: CNC(=O)c1ccc(N2C(=S)N(c3ccc(C#N)c(C(F)(F)F)c3)C(=O)C2(C)C)cc1F [Enzalutamide, enzalutamide, reference compound]
- induction of CYP3A4 messenger RNA and enzymatic activity [3]: may cause increases in messenger RNA and enzymatic activity for CYP3A4
- increase in AUC∞ [4, 17]: 1.41 fold
- inhibition of CYP2C9 [5]: lesser inhibitory effects
- inhibition of CYP2C8 [6]: may act as inhibitors
- CYP3A4 induction classification [7]: strong inducer
- aqueous solubility [8]: ≤ 2.0 µg/mL
- inhibition of CYP2B6 [9]: lesser inhibitory effects
- inhibition of CYP2C19 [10]: may act as inhibitors
- C trough [11, 18]: 12000 ± 3510 ng/mL
- CL/F [11, 18]: 0.52 ± 0.09 L/h
- concentration at 49 d ([11]; human, plasma, oral, 160 mg once daily): 12000 ng/mL
- Cmax ([11]; human, plasma, oral, 160 mg, C max, 14 patients taking enzalutamide 160 mg once daily for 49 days, mean ± standard deviation): ~17000 ng/mL
- increase in AUC∞ [12]: 4.26 fold
- maximum tolerated dose [13]: 240 mg/day

SMILES: COc1ccc2[nH]c([S+]([O-])Cc3ncc(C)c(OC)c3C)nc2c1 (stereo not drawn) [omeprazole, reference compound]
- decrease in AUC∞ by enzalutamide [2, 16]: 70%
- AUC∞ geometric mean ratio test/reference (90 % CI) [2]: 0.30 (0.24–0.36)
- C max geometric mean ratio test/reference (90 % CI) [2]: 0.38 (0.26–0.54)

SMILES: COc1ccc2nc([S+]([O-])Cc3ncc(CO)c(OC)c3C)[nH]c2c1 (stereo not drawn) [5-Hydroxy-omeprazole]
- decrease in AUC∞ by enzalutamide [2, 16]: 54%
- AUC∞ geometric mean ratio test/reference (90 % CI) [2]: 0.46 (0.39–0.53)
- C max geometric mean ratio test/reference (90 % CI) [2]: 0.64 (0.50–0.83)

SMILES: CC(=O)C[C@H](c1ccccc1)c1c(O)c2ccccc2oc1=O [R-warfarin, reference compound]
- decrease in AUC∞ by enzalutamide [2, 16]: 45%

SMILES: CC(O)c1ccc(CCOc2ccc(CC3SC(=O)NC3=O)cc2)nc1 (stereo not drawn) [Hydroxy-pioglitazone (M-IV), Hydroxy-pioglitazone]
- decrease in AUC∞ by enzalutamide [2, 16]: 37%
- AUC∞ geometric mean ratio test/reference (90 % CI) [2]: 0.63 (0.52–0.77)
- C max geometric mean ratio test/reference (90 % CI) [2]: 0.60 (0.52–0.70)

SMILES: CC(=O)C[C@@H](c1ccccc1)c1c(O)c2ccc(O)cc2oc1=O [7-Hydroxy-S-warfarin]
- decrease in AUC∞ by enzalutamide [2, 16]: 53%
- AUC∞ geometric mean ratio test/reference (90 % CI) [2]: 0.47 (0.35–0.63)
- C max geometric mean ratio test/reference (90 % CI) [2]: 0.83 (0.71–0.99)

SMILES: CC1(C)C(=O)N(c2ccc(C#N)c(C(F)(F)F)c2)C(=S)N1c1ccc(C(N)=O)c(F)c1 [N-desmethyl enzalutamide]
- decrease in Cmax ([4]; with gemfibrozil vs enzalutamide alone): 44%
- decrease in AUC18 d ([4]; with gemfibrozil vs enzalutamide alone, observed data): 67%
- decrease in AUC18 d [4, 19]: 4%
- decrease in Cmax [4, 19]: 14%
- increase in AUC∞ [4, 17]: 1.21 fold
- inhibition of CYP2C9 [5]: lesser inhibitory effects
- inhibition of CYP2C8 [6]: may act as inhibitors
- circulating plasma concentrations relative to enzalutamide [14]: approximately the same plasma concentrations as enzalutamide
- inhibition of CYP2B6 [9]: lesser inhibitory effects
- inhibition of CYP2C19 [10]: may act as inhibitors
- C max [11, 18]: 12700 ± 3770 ng/mL
- C trough [11, 18]: 10600 ng/mL and 10600 ± 3270 ng/mL
- t max [11, 20]: 4.0 [0.0–24.0] h
- AUCτ ([11]; mean ± standard deviation): 278 ± 85.5 µg·h/mL
- decrease in AUC∞ [12]: 25%

SMILES: CC1(C)C(=O)N(c2ccc(C#N)c(C(F)(F)F)c2)C(=S)N1c1ccc(C(=O)O)c(F)c1 [Carboxylic acid metabolite]
- inhibition of CYP2C9 [5]: lesser inhibitory effects
- inhibition of CYP2C8 [6]: may act as inhibitors
- plasma concentrations lower than enzalutamide ([14]; circulating concentrations): approximately 25%
- inhibition of CYP2B6 [9]: lesser inhibitory effects
- pharmacological activity (primary and secondary pharmacodynamics) [15]: pharmacologically inactive
- inhibition of CYP2C19 [10]: may act as inhibitors
- C max [11, 18]: 8860 ± 6520 ng/mL
- C trough [11, 18]: 6320 ± 5190 ng/mL
- t max [11, 20]: 3.5 [0.0–24.0] h
- AUCτ ([11]; mean ± standard deviation): 193 ± 144 µg·h/mL
